Results: ChEMBL document CHEMBL4334438, “Discovery of novel glycogen synthase kinase-3α inhibitors: Structure-based virtual screening, preliminary SAR and biological evaluation for treatment of acute myeloid leukemia” (Eur J Med Chem, 2019)

Columns and labels:
[1] = molecular target: Casein kinase I isoform gamma-1 (Homo sapiens) (UniProt Q9HCP0); test: Inhibition of recombinant human CK1gamma1 (25 to 355 residues) assessed as residual activity at 1 uM using KRRRALS(p)VASLPGL as substrate measured after 40 mins in presence of [gamma33P]ATP by scintillation counting method
[2] = molecular target: Serine/threonine-protein kinase PAK 6 (Homo sapiens) (UniProt Q9NQU5); test: Inhibition of recombinant human PAK6 (382 to end residues) assessed as residual activity at 1 uM using RRRLSFAEPG as substrate measured after 40 mins in presence of [gamma33P]ATP by scintillation counting method relative to control
[3] = molecular target: Ephrin type-A receptor 3 (Homo sapiens) (UniProt P29320); test: Inhibition of recombinant human EphA3 (578 to end residues) assessed as residual activity at 1 uM using poly(Glu, Tyr) 4:1 as substrate at 40 mins in presence of [gamma-33ATP] by scintillation counting based radiometry assay relative to control
[4] = tested on: Tyrosine-protein kinase ABL1 (Homo sapiens), P00519 [Q252H]; test: Inhibition of human ABL1 Q252H mutant (27 to end residues) assessed as residual activity at 1 uM using EAIYAAPFAKKK as substrate incubated for 40 mins in presence of [gamma-33ATP] by scintillation counting based radiometry assay relative to control
[5] = tested on: Protein kinase C eta type (Homo sapiens), P24723 [UNDEFINED MUTATION]; test: Inhibition of recombinant human PKCeta V108L/G109R/L392Q mutant (2 to end residues) assessed as residual activity at 1 uM using ERMRPRKRQGSVRRRV as substrate incubated for 40 mins in presence of [gamma33P]ATP by scintillation counting based radiometry assay relative to control
[6] = molecular target: Calcium/calmodulin-dependent protein kinase kinase 1 (Homo sapiens) (UniProt Q8N5S9); test: Inhibition of recombinant full length human CaMKK1 assessed as residual activity at 1 uM […] incubated for 40 mins in presence of [gamma-33ATP] by scintillation counting based radiometry assay relative to control
[7] = molecular target: cGMP-dependent protein kinase 2 (Homo sapiens) (UniProt Q13237); test: Inhibition of recombinant full-length human PRKG2 assessed as residual activity at 1 uM using KKLRRTLSFAEPG as substrate measured after 40 mins in presence of [gamma33P]ATP by scintillation counting method relative to control
[8] = tested on: Serine/threonine-protein kinase N1 (Homo sapiens), Q16512 [V901I]; test: Inhibition of recombinant human PRK1 V901I mutant (498 to end residues) assessed as residual activity at 1 uM using KKLNRTLSFAEPG as substrate measured after 40 mins in presence of [gamma33P]ATP by scintillation counting method relative to control
[9] = tested on: Mast/stem cell growth factor receptor Kit (Homo sapiens), P10721 [D816H]; test: Inhibition of recombinant human C-Kit D816H mutant (544 to end residues) assessed as residual activity at 1 uM poly(Glu, Tyr) 4:1 as substrate incubated 40 mins in presence of [gamma-33ATP] by scintillation counting based radiometry assay relative to control
[10] = molecular target: Serine/threonine-protein kinase MARK2 (Homo sapiens) (UniProt Q7KZI7); test: Inhibition of recombinant full-length human PAR1Balpha assessed as residual activity at 1 uM using KKKVSRSGLYRSPSMPENLNRPR as substrate measured after 40 mins in presence of [gamma33P]ATP by scintillation counting method relative to control
[11] = molecular target: G protein-coupled receptor kinase 3 (Homo sapiens) (UniProt P35626); test: Inhibition of recombinant full length human GRK3 assessed as residual activity at 1 uM using casein as substrate at 40 mins in presence of [gamma-33ATP] by scintillation counting based radiometry assay relative to control
[12] = molecular target: Myotonin-protein kinase (Homo sapiens) (UniProt Q09013); test: Inhibition of recombinant human DMPK (1 to 549 residues) assessed as residual activity at 1 uM using KKSRGDYMTMQIG as substrate at 40 mins in presence of [gamma-33ATP] by scintillation counting based radiometry assay relative to control
[13] = tested on: RAC-gamma serine/threonine-protein kinase (Homo sapiens), Q9Y243 [S472D]; test: Inhibition of recombinant human PKBgamma S472D mutant (117 to end residues) assessed as residual activity at 1 uM using GRPRTSSFAEGKK as substrate incubated for 40 mins in presence of [gamma33P]ATP by scintillation counting based radiometry assay relative to control
[14] = molecular target: Cyclin-dependent kinase-like 3 (Homo sapiens) (UniProt Q8IVW4); test: Inhibition of recombinant full length human CDKL3 assessed as residual activity at 1 uM using RRRFRPASPLRGPPK as substrate incubated for 120 mins in presence of [gamma-33ATP] by scintillation counting based radiometry assay relative to control
[15] = molecular target: Serine/threonine-protein kinase 35 (Homo sapiens) (UniProt Q8TDR2); test: Inhibition of recombinant full length human CLIK1 assessed as residual activity at 1 uM using RSRSRSRSRSRS as substrate incubated 40 mins in presence of [gamma-33ATP] by scintillation counting based radiometry assay relative to control
Homo sapiens = species on record: Homo sapiens; test: Inhibition of recombinant human MER H628Q/R794A mutant (557 to 882 residues) assessed as residual activity at 1 uM using GGMEDIYFEFMGGKKK as substrate incubated for 40 mins in presence of [gamma-33ATP by scintillation counting based radiometry assay relative to control
[16] = molecular target: Activated CDC42 kinase 1 (Homo sapiens) (UniProt Q07912); test: Inhibition of human ACK1 (1 to 389 residues) assessed as residual activity at 1 uM using EFPIYDFLPAKKK as substrate incubated for 40 mins in presence of [gamma-33ATP] by scintillation counting based radiometry assay relative to control
[17] = molecular target: Tyrosine-protein kinase JAK2 (Homo sapiens) (UniProt O60674); test: Inhibition of human JAK2 (808 to end residues) assessed as residual activity at 1 uM using KTFCGTPEYLAPEVRREPRILSEEEQEMFRDFDYIADWC as substrate after 40 mins by [gamma-33ATP] radiometric assay relative to control
[18] = molecular target: Proto-oncogene tyrosine-protein kinase Src (Homo sapiens) (UniProt P12931); test: Inhibition of human Src (1 to 530 residues) assessed as residual activity at 1 uM using GGEEEEYFELVKKKK as substrate measured after 40 mins in presence of [gamma33P]ATP by scintillation counting method relative to control
[19] = molecular target: Protein kinase C alpha type (Homo sapiens) (UniProt P17252); test: Inhibition of recombinant human full length PKCalpha assessed as residual activity at 1 uM using histone H1 as substrate measured after 40 mins in presence of [gamma33P]ATP by scintillation counting method relative to control
[20] = tested on: Homeodomain-interacting protein kinase 2 (Homo sapiens), Q9H2X6 [UNDEFINED MUTATION]; test: Inhibition of human HIPK2 I471N mutant (165 to 564 residues) assessed as residual activity at 1 uM using myelin basic protein as substrate after 40 mins by [gamma-33ATP] radiometric assay relative to control
Homeodomain-interacting protein kinase 2 (Homo sapiens), Q9H2X6 [UNDEFINED MUTATION], sequence (Q9H2X6 whole entry, looked up, stated change not applied, the tested form may be a part): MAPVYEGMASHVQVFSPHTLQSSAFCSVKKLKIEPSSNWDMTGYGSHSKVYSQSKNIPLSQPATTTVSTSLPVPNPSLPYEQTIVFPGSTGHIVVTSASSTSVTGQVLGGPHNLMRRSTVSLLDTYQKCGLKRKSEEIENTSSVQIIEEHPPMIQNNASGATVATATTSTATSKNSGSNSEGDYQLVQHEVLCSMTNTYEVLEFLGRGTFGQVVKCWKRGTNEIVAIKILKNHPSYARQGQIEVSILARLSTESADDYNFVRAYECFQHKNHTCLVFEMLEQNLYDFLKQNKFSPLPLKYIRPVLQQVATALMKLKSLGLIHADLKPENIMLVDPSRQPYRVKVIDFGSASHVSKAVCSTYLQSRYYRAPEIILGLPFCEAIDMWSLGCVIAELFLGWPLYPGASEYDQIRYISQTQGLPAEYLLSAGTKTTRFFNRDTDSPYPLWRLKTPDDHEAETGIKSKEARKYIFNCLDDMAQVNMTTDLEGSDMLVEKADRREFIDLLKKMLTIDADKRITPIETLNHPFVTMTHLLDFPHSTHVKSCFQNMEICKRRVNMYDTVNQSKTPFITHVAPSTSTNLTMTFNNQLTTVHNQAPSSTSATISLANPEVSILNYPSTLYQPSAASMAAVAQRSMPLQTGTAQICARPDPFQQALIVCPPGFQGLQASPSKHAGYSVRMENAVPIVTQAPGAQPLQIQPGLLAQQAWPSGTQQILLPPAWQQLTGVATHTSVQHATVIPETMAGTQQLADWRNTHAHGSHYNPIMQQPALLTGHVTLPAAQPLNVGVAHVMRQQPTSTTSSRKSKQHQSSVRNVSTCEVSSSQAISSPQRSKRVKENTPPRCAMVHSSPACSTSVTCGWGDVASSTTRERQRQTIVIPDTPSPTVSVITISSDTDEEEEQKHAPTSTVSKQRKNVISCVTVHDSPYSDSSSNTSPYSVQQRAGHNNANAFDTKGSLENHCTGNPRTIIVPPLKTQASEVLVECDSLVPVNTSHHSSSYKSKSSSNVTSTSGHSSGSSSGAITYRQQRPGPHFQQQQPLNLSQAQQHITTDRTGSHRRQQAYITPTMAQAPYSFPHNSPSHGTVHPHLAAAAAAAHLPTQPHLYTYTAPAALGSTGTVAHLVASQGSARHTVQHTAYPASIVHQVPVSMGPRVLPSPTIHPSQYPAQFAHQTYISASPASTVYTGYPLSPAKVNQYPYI

Casein kinase I isoform gamma-1 (Homo sapiens), sequence (Q9HCP0 whole entry, looked up, the tested form may be a part, canonical isoform): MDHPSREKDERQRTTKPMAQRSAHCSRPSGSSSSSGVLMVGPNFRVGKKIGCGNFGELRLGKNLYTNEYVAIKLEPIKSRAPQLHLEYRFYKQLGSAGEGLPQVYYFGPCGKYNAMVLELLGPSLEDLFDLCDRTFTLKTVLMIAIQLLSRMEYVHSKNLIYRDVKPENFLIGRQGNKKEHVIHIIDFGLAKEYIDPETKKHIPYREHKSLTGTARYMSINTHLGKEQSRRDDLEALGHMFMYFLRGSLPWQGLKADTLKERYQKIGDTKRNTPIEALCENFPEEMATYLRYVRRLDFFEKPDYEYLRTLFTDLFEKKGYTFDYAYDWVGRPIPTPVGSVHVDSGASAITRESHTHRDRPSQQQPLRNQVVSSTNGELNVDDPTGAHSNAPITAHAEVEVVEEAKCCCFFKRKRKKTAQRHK
Mast/stem cell growth factor receptor Kit (Homo sapiens), P10721 [D816H], sequence (P10721 whole entry D816H): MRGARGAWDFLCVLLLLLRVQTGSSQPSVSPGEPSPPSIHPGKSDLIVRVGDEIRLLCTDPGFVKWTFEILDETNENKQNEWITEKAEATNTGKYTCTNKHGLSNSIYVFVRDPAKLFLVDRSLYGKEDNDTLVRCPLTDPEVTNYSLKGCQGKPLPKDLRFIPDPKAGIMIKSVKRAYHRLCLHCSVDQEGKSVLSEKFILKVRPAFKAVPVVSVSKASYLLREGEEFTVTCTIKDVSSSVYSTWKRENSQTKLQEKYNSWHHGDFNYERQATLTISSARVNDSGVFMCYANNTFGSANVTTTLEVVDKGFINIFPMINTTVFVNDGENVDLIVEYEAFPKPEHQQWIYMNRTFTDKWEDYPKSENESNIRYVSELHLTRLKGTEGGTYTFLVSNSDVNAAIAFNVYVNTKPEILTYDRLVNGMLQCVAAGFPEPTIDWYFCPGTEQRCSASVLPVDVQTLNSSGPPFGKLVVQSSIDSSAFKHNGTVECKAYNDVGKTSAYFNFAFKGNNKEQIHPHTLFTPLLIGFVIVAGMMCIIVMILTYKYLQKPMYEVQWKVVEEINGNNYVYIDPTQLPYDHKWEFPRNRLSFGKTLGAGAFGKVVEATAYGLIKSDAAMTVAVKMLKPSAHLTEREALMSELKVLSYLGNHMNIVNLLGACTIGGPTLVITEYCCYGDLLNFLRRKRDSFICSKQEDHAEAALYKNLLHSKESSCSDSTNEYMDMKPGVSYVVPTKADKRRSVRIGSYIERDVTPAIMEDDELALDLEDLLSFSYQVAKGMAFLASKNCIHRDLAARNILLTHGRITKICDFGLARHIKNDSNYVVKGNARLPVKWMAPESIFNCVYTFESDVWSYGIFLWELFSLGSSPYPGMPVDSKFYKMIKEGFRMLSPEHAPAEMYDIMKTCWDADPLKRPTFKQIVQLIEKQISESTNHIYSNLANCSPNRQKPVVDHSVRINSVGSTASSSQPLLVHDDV
Myotonin-protein kinase (Homo sapiens), sequence (Q09013 whole entry, the tested form may be a part): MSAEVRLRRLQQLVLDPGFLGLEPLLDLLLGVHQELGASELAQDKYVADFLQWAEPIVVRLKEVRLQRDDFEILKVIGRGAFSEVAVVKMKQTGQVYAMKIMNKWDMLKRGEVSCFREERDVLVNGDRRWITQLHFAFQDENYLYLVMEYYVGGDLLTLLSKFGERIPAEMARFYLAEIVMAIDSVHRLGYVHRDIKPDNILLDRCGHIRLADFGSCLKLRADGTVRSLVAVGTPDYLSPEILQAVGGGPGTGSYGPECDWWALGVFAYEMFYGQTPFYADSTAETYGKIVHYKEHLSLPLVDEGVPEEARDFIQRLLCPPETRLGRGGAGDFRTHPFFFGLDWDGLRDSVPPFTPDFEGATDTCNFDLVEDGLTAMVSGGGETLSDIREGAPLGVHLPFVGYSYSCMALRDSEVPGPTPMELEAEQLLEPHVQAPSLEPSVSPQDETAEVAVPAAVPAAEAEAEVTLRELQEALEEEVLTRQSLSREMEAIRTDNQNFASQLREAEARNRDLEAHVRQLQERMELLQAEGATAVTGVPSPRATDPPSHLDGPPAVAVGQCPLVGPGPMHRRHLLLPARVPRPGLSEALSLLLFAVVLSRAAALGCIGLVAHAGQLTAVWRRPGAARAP
Proto-oncogene tyrosine-protein kinase Src (Homo sapiens), sequence (P12931 2-536 limits assumed): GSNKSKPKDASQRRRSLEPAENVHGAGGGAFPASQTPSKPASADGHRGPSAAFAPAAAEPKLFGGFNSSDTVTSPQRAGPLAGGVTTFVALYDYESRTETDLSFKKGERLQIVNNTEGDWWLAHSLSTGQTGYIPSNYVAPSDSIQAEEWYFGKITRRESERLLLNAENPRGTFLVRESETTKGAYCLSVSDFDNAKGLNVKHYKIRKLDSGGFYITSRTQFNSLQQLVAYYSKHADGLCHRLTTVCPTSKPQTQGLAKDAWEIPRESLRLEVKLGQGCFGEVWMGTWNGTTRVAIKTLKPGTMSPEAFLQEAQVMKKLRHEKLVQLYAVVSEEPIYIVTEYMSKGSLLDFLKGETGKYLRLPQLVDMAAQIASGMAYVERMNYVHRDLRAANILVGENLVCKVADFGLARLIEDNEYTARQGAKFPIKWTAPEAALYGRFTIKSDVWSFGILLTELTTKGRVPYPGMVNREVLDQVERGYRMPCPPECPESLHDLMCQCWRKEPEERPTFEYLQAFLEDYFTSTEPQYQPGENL
Serine/threonine-protein kinase 35 (Homo sapiens), sequence (Q8TDR2 whole entry, the tested form may be a part): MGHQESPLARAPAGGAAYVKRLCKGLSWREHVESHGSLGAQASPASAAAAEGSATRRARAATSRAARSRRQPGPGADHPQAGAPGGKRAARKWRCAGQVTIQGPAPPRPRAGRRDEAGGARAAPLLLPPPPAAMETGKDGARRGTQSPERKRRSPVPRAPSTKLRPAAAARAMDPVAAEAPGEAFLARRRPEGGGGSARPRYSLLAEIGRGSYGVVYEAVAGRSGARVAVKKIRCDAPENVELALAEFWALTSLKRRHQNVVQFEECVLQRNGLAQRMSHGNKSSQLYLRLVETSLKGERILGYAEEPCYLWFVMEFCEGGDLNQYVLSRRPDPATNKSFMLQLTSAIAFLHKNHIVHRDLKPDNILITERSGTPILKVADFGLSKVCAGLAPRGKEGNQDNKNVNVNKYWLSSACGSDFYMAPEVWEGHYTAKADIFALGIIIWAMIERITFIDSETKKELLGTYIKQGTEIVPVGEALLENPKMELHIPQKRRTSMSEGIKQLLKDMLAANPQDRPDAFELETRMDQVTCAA

| SMILES | Activity [1] [%] | Activity [2] [%] | Activity [3] [%] | Activity [4] [%] | Activity [5] [%] | Activity [6] [%] | Activity [7] [%] | Activity [8] [%] | Activity [9] [%] | Activity [10] [%] | Activity [11] [%] | Activity [12] [%] | Activity [13] [%] | Activity [14] [%] | Activity [15] [%] | Activity (Homo sapiens) [%] | Activity [16] [%] | Activity [17] [%] | Activity [18] [%] | Activity [19] [%] | also measured |
| --- | --- | --- | --- | --- | --- | --- | --- | --- | --- | --- | --- | --- | --- | --- | --- | --- | --- | --- | --- | --- | --- |
| C=CCOC(=O)c1cc(-c2ccc(/C=C3/NC(=S)NC3=O)o2)ccc1Cl | 101 | 107 | 97 | 110 | 99 | 96 | 94 | 98 | 97 | 95 | 117 | 76 | 72 | 67 | 74 | 101 | 96 | 108 | 92 | 96 | Activity [20]: 5% |
| N=C1NC(=O)/C(=C\c2ccc(-c3cccc([N+](=O)[O-])c3)o2)S1 | 101 | 91 | 111 | 80 | 101 | 92 | 51 | 90 | 89 | 105 | 94 | 93 | 100 | 54 | 51 | 97 | 93 | 102 | 74 | 97 | Activity [20]: 1% |
